# According to patent publication US20100206809A1, “METHOD AND APPARATUS FOR TREATING ORGANIC MATTER-CONTAINING WATER” (KURITA WATER INDUSTRIES LTD., priority 2007, published 2010):
# Tests used:
# viable cells [1] = assay: Viable cell counts at measuring points, nonionic surfactant-containing wastewater treatment (FIG. 2 embodiment)
# Procedure: […] Next, an EDTA-based scale inhibitor (Welclean A801, manufactured by Kurita Water Industries Ltd.) was added in an amount of 10 mg/L (five times the weight of the concentration of calcium ions in softening column-treated water). NaOH was added to adjust the pH to 10.5. Then the water was passed through an RO membrane separator (with an aromatic-polyamide ultra-low-pressure RO membrane “ES-20”, manufactured by Nitto Denko Corporation) at a permeate flow of 60 L/hr and a recovery rate of 80% to perform RO membrane separation treatment.
# In Example 10 and Comparative Example 2, viable cell counts were measured at several points.
# In Examples 11 to 14, viable cell counts in the activated carbon-treated water and the softened water were measured.
# In Examples 15 to 18, viable cell counts in the activated carbon-treated water and the softening column-treated water were measured.
# viable cells [2] = assay: Viable cell counts at measuring points, industrial water treatment (FIG. 1 embodiment)
# Procedure: The water that had been subjected to the coagulation-filtration treatment was passed through an activated carbon column at an SV of 20 hr^−1. Then the water was passed through an RO membrane separator (with an aromatic-polyamide ultra-low-pressure RO membrane “ES-20”, manufactured by Nitto Denko Corporation) at a permeate flow of 60 L/hr and a recovery rate of 80%.
# In Example 1 and Comparative Example 1, viable cell counts were measured at several points.
# In Examples 2 to 5, concentrations of combined chlorine in activated carbon feed water (water fed into the activated carbon column) and activated carbon-treated water (water from the activated carbon column) were measured, and viable cell counts in the activated carbon-treated water were measured.
# In Examples 6 to 9, concentrations of combined chlorine and viable cell counts in the activated carbon-treated water were measured.
# [3] = Daily change in flux through the RO membrane separator
# Procedure: The water that had been subjected to the coagulation-filtration treatment was passed through a fixed-bed activated carbon column at an SV of 20 hr^−1 and then a softening column at an SV of 15 hr^−1. Next, an EDTA-based scale inhibitor (Welclean A801, manufactured by Kurita Water Industries Ltd.) was added in an amount of 10 mg/L (five times the weight of the concentration of calcium ions in softening column-treated water). […] Then the water was passed through an RO membrane separator (with an aromatic-polyamide ultra-low-pressure RO membrane “ES-20”, manufactured by Nitto Denko Corporation) at a permeate flow of 60 L/hr and a recovery rate of 80% to perform RO membrane separation treatment.
# Treatment was performed under the same conditions as those in Example 10, except that the pH of the softening column-treated water was adjusted in such a manner that the pH of the RO feed water was 6 (Reference Example 1) or 8.5 (Reference Example 2).
# In Example 10, Comparative Example 2, and Reference Examples 1 and 2, daily changes in flux through the RO membrane separator were measured.
# [4] = Example 11, chloramine T added 0.5 mg-Cl2/L (combined chlorine), SV 20 hr^-1, wastewater
# [5] = Example 12, chloramine T added 0.8 mg-Cl2/L (combined chlorine), SV 20 hr^-1, wastewater
# [6] = Example 15, SV through activated carbon column 10 hr^-1, combined chlorine 1 mg-Cl2/L, wastewater
# [7] = Example 16, SV through activated carbon column 15 hr^-1, combined chlorine 1 mg-Cl2/L, wastewater
# [8] = day 1, Example 10 (chloramine T 5 mg-Cl2/L) / Comparative Example 2 (NaClO 0.5 mg-Cl2/L), RO feed water pH 9.5
# [9] = day 7, Example 10 (chloramine T 5 mg-Cl2/L) / Comparative Example 2 (NaClO 0.5 mg-Cl2/L), RO feed water pH 9.5
# [10] = Example 10 (chloramine T, combined chlorine 5 mg-Cl2/L) / Comparative Example 2 (NaClO, free chlorine 0.5 mg-Cl2/L), wastewater TOC 20 mg/L, SV 20 hr^-1
# [11] = Example 1 (chloramine T, combined chlorine 5 mg-Cl2/L) / Comparative Example 1 (NaClO, free chlorine 0.5 mg-Cl2/L), SV 20 hr^-1
structure (smiles),measurement,setting,value
"Cc1ccc(S(=O)(=O)[N-]Cl)cc1.[Na+] [Chloramine T, sodium N-chloro-p-toluenesulfonamide trihydrate]",Viable cells at all measuring points,"viable cells [1]; Example 10, combined chlorine 5 mg-Cl2/L, wastewater, SV 20 hr^-1",no viable cells were detected
same,"Viable cell count, activated carbon-treated water",viable cells [1]; [4],3 × 10^4 cells/ml
same,"Viable cell count, softened water",viable cells [1]; [4],4 × 10^5 cells/ml
same,"Viable cell count, activated carbon-treated water",viable cells [1]; [5],6 × 10^3 cells/ml
same,"Viable cell count, softened water",viable cells [1]; [5],8 × 10^4 cells/ml
same,"Viable cell count, activated carbon-treated water",viable cells [1]; [6],9 × 10^4 cells/ml
same,"Viable cell count, softened water",viable cells [1]; [6],2 × 10^6 cells/ml
same,"Viable cell count, activated carbon-treated water",viable cells [1]; [7],2 × 10^5 cells/ml
same,"Viable cell count, softened water",viable cells [1]; [7],7 × 10^6 cells/ml
same,Viable cells at all measuring points,"viable cells [2]; Example 1, combined chlorine 5 mg-Cl2/L, SV 20 hr^-1",no viable cells were detected
same,Viable cell count in activated carbon-treated water,"viable cells [2]; Example 2, combined chlorine in activated carbon feed water 0.5 mg/L, SV 20 hr^-1",4 × 10^3 cells/ml
same,Viable cell count in activated carbon-treated water,"viable cells [2]; Example 3, combined chlorine in activated carbon feed water 0.8 mg/L, SV 20 hr^-1",5 × 10^3 cells/ml
same,Viable cell count in activated carbon-treated water,"viable cells [2]; Example 6, SV through activated carbon column 10 hr^-1, combined chlorine 1 mg-Cl2/L",9 × 10^3 cells/mil
same,Viable cell count in activated carbon-treated water,"viable cells [2]; Example 7, SV through activated carbon column 15 hr^-1, combined chlorine 1 mg-Cl2/L",2 × 10^3 cells/mil
same,Reduction in flux through the RO membrane separator,"[3]; Example 10, chloramine T 5 mg-Cl2/L, RO feed water pH 9.5",no reduction in flux
same,Flux,[3]; [8],1.0 m^3/m^2 · day
same,Flux,"[3]; day 1, Reference Example 1, chloramine T 5 mg-Cl2/L, RO feed water pH 6",0.98 m^3/m^2 · day
same,Flux,"[3]; day 1, Reference Example 2, chloramine T 5 mg-Cl2/L, RO feed water pH 8.5",0.99 m^3/m^2 · day
same,Flux,[3]; [9],0.95 m^3/m^2 · day
same,Flux,"[3]; day 7, Reference Example 1, chloramine T 5 mg-Cl2/L, RO feed water pH 6",0.98 m^3/m^2 · day
same,Flux,"[3]; day 7, Reference Example 2, chloramine T 5 mg-Cl2/L, RO feed water pH 8.5",0.97 m^3/m^2 · day
same,Flux,"[3]; day 30, Example 10 (chloramine T 5 mg-Cl2/L) / Comparative Example 2 (NaClO 0.5 mg-Cl2/L), RO feed water pH 9.5",0.95 m^3/m^2 · day
same,Flux,"[3]; day 30, Reference Example 1, chloramine T 5 mg-Cl2/L, RO feed water pH 6",0.97 m^3/m^2 · day
same,Flux,"[3]; day 30, Reference Example 2, chloramine T 5 mg-Cl2/L, RO feed water pH 8.5",0.97 m^3/m^2 · day
same,Flux,"[3]; day 60, Example 10 (chloramine T 5 mg-Cl2/L), RO feed water pH 9.5",0.93 m^3/m^2 · day
same,Flux,"[3]; day 90, Example 10 (chloramine T 5 mg-Cl2/L), RO feed water pH 9.5",0.93 m^3/m^2 · day
"OCl [NaClO, sodium hypochlorite, reference compound]",Viable cells detected in the activated carbon-treated water,"viable cells [1]; Comparative Example 2, free chlorine 0.5 mg-Cl2/L, wastewater",10^5 viable cells per milliliter
same,Viable cells detected in the softening column-treated water,"viable cells [1]; Comparative Example 2, free chlorine 0.5 mg-Cl2/L, wastewater, sampled before the addition of the alkali",10^6 viable cells per milliliter
same,"Viable cell count, activated carbon-treated water",viable cells [1]; [10],10^5 cells/ml
same,"Viable cell count, softened water",viable cells [1]; [10],10^6 cells/ml
same,Viable cells detected in the activated carbon-treated water,"viable cells [2]; Comparative Example 1, free chlorine 0.5 mg-Cl2/L, SV 20 hr^-1",10^3 viable cells per milliliter
same,"Viable cell count, RO feed water",viable cells [2]; [11],4 × 10^3 cells/ml
same,"Viable cell count, RO-concentrated water",viable cells [2]; [11],2 × 10^5 cells/ml
same,"Viable cell count, activated carbon-treated water",viable cells [2]; [11],5 × 10^3 cells/ml
same,Flux,[3]; [8],0.98 m^3/m^2 · day
same,Flux,[3]; [9],0.96 m^3/m^2 · day
